Key:
[1] = test system: LPS-induced TNF-α in serum; assay: Murine model of lipopolysaccharide-induced cytokine production; format: in vivo, Swiss-Webster mice
Description: This is a contract research performed by Washington Biotechnology Inc., Columbia, Md., protocol 1077. Swiss-Webster mice (female, Harlan Sprague-Dawley, 5-6 weeks) were weighed and dosed orally with 10 ml/kg water, prednisolone at 10 mg/kg, or DA021 at 30 mg/kg or 100 mg/kg. Thirty minutes after oral dosing, lipopolysaccharides (LPS) at 2 mL/kg was injected. Two hours after LPS injection, the mice were anesthetized and exsanguinated into serum separator micro-container tubes. The blood was processed to serum. The serum samples were assayed for tumor necrosis factor-α (TNFα) concentration by ELISA (Pierce) according to the manufacturer's protocol.
Evaluation of the efficacy and potency of orally administered DA021 to inhibit the lipopolysaccharide (LPS)-induced release of tumor necrosis factor-α (TNF-α) in mice was carried out. LPS is a widely used endotoxin, isolated from the bacteria, E. coli in inducing acute inflammation in an organism. Prednisolone is a synthetic corticosteroid drug that is commonly used in inflammatory reactions. It is a broad range immunosuppressant. Based on FIG. 29, there was a marked increase in the amount of TNF-α in serum upon LPS treatment in mice.
Two hours after LPS injection, the serum was collected from the mice. The serum samples were assayed for tumor necrosis factor-α (TNFα) concentration by ELISA (Pierce) according to the manufacturer's protocol. N=10, significance was calculated versus LPS+vehicle using the Student's T-test, *=p≦0.05, #=p≦1×10^−4.

EP3 receptor = EP3 receptor (Homo sapiens, UniProt P43115); assay: Radioligand competition binding assay, EP3; conditions: EP3, target PGE2; compound at 10 μM in duplicate; read-out: % inhibition of control specific binding
Description: To determine the targets of DA compounds, the compound was assessed in binding assays for the family of prostanoid receptors. Both compounds were tested at a single concentration (10 μM) in duplicate. DA001 and DA021 inhibit the ligand binding of prostaglandin E2 receptors EP1, EP2 and EP4 and moderately to prostaglandin (PGF) to its receptor (FP), but not prostaglandin I (PGI2), thromoboxane A and prostaglandin D2 to their receptors.

[2] = test system: scopolamine-induced memory impaired mice; assay: Morris water maze, scopolamine-induced memory impairment; format: in vivo; conditions: 10 mg/kg orally, scopolamine 4 mg/kg i.p.; day 4 and day 5
Description: 6-8 week old outbred male I.C.R. mice, weighing 25-35 g were housed two per cage in a climatically controlled animal room (23-25° C.) under 12 hours light/dark cycling. The animals were allowed access to water and food ad lib. The mice used for the experiment were brought to particular laboratory conditions for two days. All the experiments were conducted between 14:00 and 18:00. […] The experimental mice were randomly assigned into 4 or 6 groups, each consisting of 12 mice with similar mean body weights and age. The test compound was dissolved in physiological saline before the experiments each day. […]
Each mouse was subjected to 4 trials per day for 5 consecutive days. […] The probe trial (without platform) was assessed within a 60 s period on the fifth day of behavioral testing (one experiment), and the time spent in the southeast quadrant where the escape platform had been set during training was recorded computationally and presented as percentage of spatial bias.
The two-way ANOVA with repeated measures was used to analyze latency values, and calculated as the mean latency periods for each mouse. (Data are expressed as means±S.E.M. by using 2-way ANOVA). One-way ANOVA followed by Duncan's multiple-range test (data expressed as mean±S.E.M. *P<0.05 and **P<0.01 versus scopolamine) was used to analyze group differences of the data collected during probe trials. […]

EP3 receptor, sequence (P43115 whole entry): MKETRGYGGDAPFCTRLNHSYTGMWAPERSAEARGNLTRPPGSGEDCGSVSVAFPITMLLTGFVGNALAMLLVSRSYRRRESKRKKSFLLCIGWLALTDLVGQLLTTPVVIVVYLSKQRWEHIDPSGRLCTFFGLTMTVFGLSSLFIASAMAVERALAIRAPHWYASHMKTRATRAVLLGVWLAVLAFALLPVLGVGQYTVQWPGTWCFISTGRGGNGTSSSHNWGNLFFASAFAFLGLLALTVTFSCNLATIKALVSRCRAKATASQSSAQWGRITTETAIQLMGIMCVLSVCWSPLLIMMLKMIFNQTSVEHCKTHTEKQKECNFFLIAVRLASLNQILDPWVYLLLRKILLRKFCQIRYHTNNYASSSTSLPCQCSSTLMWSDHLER

With `C=C(C)[C@@H]1CC[C@]2(/C=N/O)CC[C@]3(C)C(CCC4[C@@]5(C)CCC(=O)[C@@](C)(CO)[C@@H]5CC[C@]43C)C12` (stereo partly shown) [DA021] the “inhibition of the LPS response (serum TNF-α)” value ([1]; 30 mg/kg orally 30 min before LPS) was 73%, the “inhibition of the LPS response (serum TNF-α)” value ([1]; 100 mg/kg orally 30 min before LPS) was 77% and the inhibition at 10 µM (EP3 receptor) was -3%. The escape latency [2] was “significantly reversed the increased escape latency”.

Reference: US9029414B2, “Triterpenoid compounds and methods of use thereof” (Biotechnology Research Corporation, priority 2008, dated 2015)
